In PubChem BioAssay (NCI):
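Abbreviation: GI50, concentration required for 50% inhibition of growth. At the TGI there is no net growth.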

Columns and labels:
Experiment in all cases: inhibition of tumour cell growth, NCI panel, 384-well format
[1] = test system: UACC-257 melanoma
[2] = test system: MDA-MB-468 breast
[3] = test system: 786-0 renal
[4] = test system: MALME-3M melanoma
[5] = test system: BT-549 breast
[6] = test system: U251 glioblastoma
[7] = test system: SF-295 CNS
[8] = test system: SK-OV-3 ovarian
[9] = test system: NCI-H522 lung
[10] = test system: OVCAR-4 ovarian
[11] = test system: M14 melanoma
[12] = test system: MDA-MB-435 melanoma
[13] = test system: DU-145 prostate
[14] = test system: OVCAR-8 ovarian
[15] = test system: IGROV1 ovarian
[16] = test system: HCT-15 colon
[17] = test system: UO-31 renal
[18] = test system: UACC-62 melanoma
[19] = test system: A549 NSCLC
[20] = test system: HOP-62 NSCLC
[21] = test system: CCRF-CEM leukemia
[22] = test system: CAKI-1 renal
[23] = test system: HS 578T breast
[24] = test system: HT29 colon
[25] = test system: SK-MEL-5 melanoma
[26] = test system: NCI-H460 NSCLC
[27] = test system: SN12C renal
[28] = test system: NCI/ADR-RES ovarian
[29] = test system: SW-620 colon
[30] = test system: ACHN renal
[31] = test system: SNB-19 CNS
[32] = test system: SNB-75 CNS
[33] = test system: HCT-116 colon
[34] = test system: A498 renal
[35] = test system: OVCAR-3 ovarian
[36] = test system: PC-3 prostate
[37] = test system: EKVX NSCLC
[38] = test system: KM12 colon
[39] = test system: OVCAR-5 ovarian
[40] = test system: SF-539 CNS
[41] = test system: SF-268 CNS
[42] = test system: RPMI-8226 leukemia
[43] = test system: TK-10 renal
[44] = test system: LOX IMVI melanoma
[45] = test system: MCF7 breast
[46] = test system: T-47D breast
[47] = test system: NCI-H322M lung
[48] = test system: NCI-H226 lung
[49] = test system: NCI-H23 lung
[50] = test system: K-562 leukemia
[51] = test system: MDA-MB-231 breast
[52] = test system: HCC-2998 colon
[53] = test system: SK-MEL-28 melanoma
[54] = test system: HOP-92 NSCLC
[55] = test system: MOLT-4 leukemia
[56] = test system: SK-MEL-2 melanoma
[57] = test system: COLO 205 colon
[58] = test system: HL-60(TB) leukemia
[59] = test system: SR leukemia
[60] = test system: RXF 393 renal

COc1ccc2c(c1)[C@]1(C[C@H]1c1ccc3c(/C=C/c4ccc(CN5C[C@@H](C)O[C@@H](C)C5)cc4)n[nH]c3c1)C(=O)N2
GI50 [1]: 2.64 µM | TGI [1]: 8.98 µM | GI50 [2]: < 0.01 µM | TGI [2]: 0.07 µM | GI50 [3]: 1.63 µM | TGI [3]: 3.37 µM | GI50 [4]: 1.26 µM | TGI [4]: 2.64 µM | GI50 [5]: 1.68 µM | TGI [5]: 3.22 µM | GI50 [6]: 2.34 µM | TGI [6]: 6.9 µM | GI50 [7]: 2.74 µM | TGI [7]: 15.1 µM | GI50 [8]: 3.29 µM | TGI [8]: 33.5 µM | GI50 [9]: 2.29 µM | TGI [9]: > 100 µM | GI50 [10]: 5.15 µM | TGI [10]: 28 µM | GI50 [11]: 2.42 µM | TGI [11]: 11.4 µM | GI50 [12]: 4.64 µM | TGI [12]: 17.4 µM | GI50 [13]: 3.11 µM | TGI [13]: 12.9 µM | GI50 [14]: 2.3 µM | TGI [14]: 9.75 µM | GI50 [15]: 4.81 µM | TGI [15]: > 100 µM | GI50 [16]: 2.67 µM | TGI [16]: 8.83 µM | GI50 [17]: 4.2 µM | TGI [17]: 68.1 µM | GI50 [18]: 1.81 µM | TGI [18]: 11 µM | GI50 [19]: 1.19 µM | TGI [19]: 32.2 µM | GI50 [20]: 1.07 µM | TGI [20]: 3.32 µM | GI50 [21]: < 0.01 µM | GI50 [22]: 3.6 µM | TGI [22]: > 100 µM | GI50 [23]: 2.23 µM | TGI [23]: 4.38 µM | GI50 [24]: 1.82 µM | TGI [24]: 3.56 µM | GI50 [25]: 1.5 µM | TGI [25]: 2.85 µM | GI50 [26]: < 0.01 µM | TGI [26]: 2.02 µM | GI50 [27]: 3.57 µM | TGI [27]: 52.9 µM | GI50 [28]: 1.82 µM | TGI [28]: 7.14 µM | GI50 [29]: 2.62 µM | TGI [29]: 11.9 µM | GI50 [30]: 2.73 µM | TGI [30]: 16.8 µM | GI50 [31]: 3.34 µM | TGI [31]: 92.7 µM | GI50 [32]: 1.73 µM | TGI [32]: 4.27 µM | GI50 [33]: 1.56 µM | TGI [33]: 6.47 µM | GI50 [34]: 2.33 µM | TGI [34]: 6.32 µM | GI50 [35]: 1.33 µM | TGI [35]: 2.89 µM | GI50 [36]: 3.28 µM | TGI [36]: 11 µM | GI50 [37]: 3.76 µM | TGI [37]: 46.8 µM | GI50 [38]: 0.0171 µM | TGI [38]: 1.68 µM | GI50 [39]: 4.13 µM | TGI [39]: 64.5 µM | GI50 [40]: 1.3 µM | TGI [40]: 2.64 µM | GI50 [41]: < 0.01 µM | TGI [41]: 2.81 µM | GI50 [42]: 0.156 µM | TGI [42]: 3.4 µM | GI50 [43]: 3.66 µM | TGI [43]: 27.9 µM | GI50 [44]: 1.65 µM | TGI [44]: 3.64 µM | GI50 [45]: 1.64 µM | TGI [45]: 3.31 µM | GI50 [46]: 2.07 µM | TGI [46]: 5.25 µM | GI50 [47]: 4.48 µM | TGI [47]: > 100 µM | GI50 [48]: 1.25 µM | TGI [48]: 14.2 µM | GI50 [49]: 1.67 µM | TGI [49]: 4.27 µM | GI50 [50]: 0.219 µM | TGI [50]: 0.896 µM | GI50 [51]: 3.05 µM | TGI [51]: 10.4 µM | GI50 [52]: 2.73 µM | TGI [52]: 5.41 µM | GI50 [53]: 5.22 µM | TGI [53]: 20.9 µM | GI50 [54]: 2.19 µM | TGI [54]: 7.29 µM

C=CCn1c(=O)c2cnc(Nc3ccc(N4CCN(C)CC4)cc3)nc2n1-c1ccc2c(n1)[C@@](O)(CC)CC2
GI50 [1]: 1.95 µM | TGI [1]: 11.3 µM | GI50 [2]: 0.12 µM | TGI [2]: 0.349 µM | GI50 [3]: 0.243 µM | TGI [3]: 0.964 µM | GI50 [4]: 0.101 µM | TGI [4]: 0.484 µM | GI50 [5]: 0.137 µM | TGI [5]: 0.348 µM | GI50 [6]: 0.497 µM | TGI [6]: 11.4 µM | GI50 [7]: 0.348 µM | TGI [7]: 3.54 µM | GI50 [8]: 0.174 µM | TGI [8]: 1.57 µM | GI50 [9]: 0.13 µM | TGI [9]: 0.286 µM | GI50 [10]: 0.196 µM | TGI [10]: 1.04 µM | GI50 [11]: 0.0584 µM | TGI [11]: 0.863 µM | GI50 [12]: 0.16 µM | TGI [12]: 0.374 µM | GI50 [13]: 0.241 µM | TGI [13]: 3.89 µM | GI50 [14]: 0.288 µM | TGI [14]: 1.05 µM | GI50 [55]: 0.0305 µM | TGI [55]: 0.121 µM | GI50 [15]: 0.0953 µM | TGI [15]: 1.35 µM | GI50 [16]: 0.44 µM | TGI [16]: 1.8 µM | GI50 [17]: 0.307 µM | TGI [17]: 1.44 µM | GI50 [18]: 0.371 µM | TGI [18]: 14.7 µM | GI50 [19]: 1.83 µM | TGI [19]: 12.3 µM | GI50 [20]: 0.401 µM | TGI [20]: 2.15 µM | GI50 [22]: 0.0644 µM | TGI [22]: 12.7 µM | GI50 [23]: 0.083 µM | TGI [23]: 0.445 µM | GI50 [56]: 0.124 µM | TGI [56]: 0.352 µM | GI50 [24]: 0.211 µM | TGI [24]: 0.536 µM | GI50 [25]: 0.172 µM | TGI [25]: 0.453 µM | GI50 [26]: 0.139 µM | TGI [26]: 0.806 µM | GI50 [27]: 0.328 µM | TGI [27]: 3.89 µM | GI50 [57]: 0.349 µM | TGI [57]: 2.02 µM | GI50 [29]: 0.28 µM | TGI [29]: 1.95 µM | GI50 [31]: 1.35 µM | TGI [31]: > 100 µM | GI50 [32]: 1.07 µM | TGI [32]: 8.16 µM | GI50 [33]: 0.268 µM | TGI [33]: 8.68 µM | GI50 [35]: 0.126 µM | TGI [35]: 0.371 µM | GI50 [36]: 1.04 µM | TGI [36]: 20.3 µM | GI50 [37]: 0.324 µM | TGI [37]: 2.51 µM | GI50 [38]: 1.13 µM | TGI [38]: 7.26 µM | GI50 [39]: 0.92 µM | TGI [39]: 14.4 µM | GI50 [58]: 0.11 µM | TGI [58]: 0.233 µM | GI50 [40]: 0.0495 µM | TGI [40]: 0.194 µM | GI50 [41]: 0.689 µM | TGI [41]: 13.8 µM | GI50 [59]: 0.103 µM | TGI [59]: 0.224 µM | GI50 [43]: 0.16 µM | TGI [43]: 1.56 µM | GI50 [45]: 0.218 µM | TGI [45]: 2.19 µM | GI50 [46]: 5.81 µM | TGI [46]: 21.8 µM | GI50 [47]: 0.206 µM | TGI [47]: 2.03 µM | GI50 [48]: 1.02 µM | TGI [48]: 5.55 µM | GI50 [49]: 0.0785 µM | TGI [49]: 0.257 µM | GI50 [50]: 0.165 µM | TGI [50]: 0.354 µM | GI50 [60]: 0.026 µM | TGI [60]: 0.106 µM | GI50 [51]: 0.395 µM | TGI [51]: 10.1 µM | GI50 [53]: 2.88 µM | TGI [53]: 14.3 µM | GI50 [54]: 0.13 µM | TGI [54]: 13.4 µM
